# Results taken from patent US12319655B2, “RAF kinase inhibitors and methods of use thereof” (Deciphera Pharmaceuticals, LLC, priority 2021, dated 2025).
# Legend:
# Miapaca-2 cells = test: MiaPaca-2 Combination Cell proliferation Assay (1) with cobimetinib; type: cell-based; settings: MiaPaca-2 cell proliferation, read-out: MiaPaca-2 Combo (1) IC50
# WM3629 cells = test: WM3629 Cell Proliferation Assay (1); type: cell-based
# Procedure: WM3629 Cell Proliferation Assay (1)
# WM3629 cells (#WM3629-01-0001) are obtained from Rockland Immunochemicals Inc (Gilbertsville, PA). Briefly, cells were grown in MCDB 153 medium (Sigma, #M7403, St. Louis, MO) supplemented with 20% Leibovitz's L-15 (ThermoFisher #11415-064, Waltham, MA), 2% heat inactivated fetal bovine serum (ThermoFisher, #A3840001, Waltham, MA), 5 μg/mL Insulin (Bovine Pancreas) (Sigma, #10516, St. Louis, MO), 1.68 mM Calcium Chloride (Sigma, #C-34006, St. Louis, MO) and 1% Penicillin/Streptomycin/L-Glutamine (ThermoFisher #10378016, Waltham, MA) at 37° C., 5% CO2, and 95% humidity. Cells are expanded until reaching 70-95% confluency at which point they are subcultured or harvested for assay use. A serial dilution of test compound is dispensed into a 96-well black clear bottom plate in triplicate. Four thousand five hundred cells are added per well in 200 μL complete growth medium in the 96-well plate. Plates are incubated for 67-72 hours at 37° C., 5% CO2, and 95% humidity. At the end of the incubation, 40 μL of a 440 μM solution of resazurin (Sigma, #199303, St. Louis, MO) in PBS is added to each well of the plate and plates are incubated for an additional 6-7 hours at 37° C., 5% CO2, and 95% humidity. Plates are read on a Synergy2 or equivalent reader (Biotek, Winooski VT) using an excitation of 540 nm and an emission of 600 nm. Data is analyzed using Prism software (GraphPad, San Diego, CA) to calculate IC50 values.
SMILES,IC50 (Miapaca-2 cells),IC50 (WM3629 cells)
CCOc1cc(-c2cc(NC(=O)c3ccnc(C(F)(F)F)c3)ccc2C)cc(-c2ccnc(NC(=O)C3CC3)c2)n1 [Example 12],100 to 500 nM,–
CC(=O)Nc1cc(-c2cc(-c3cc(NC(=O)c4ccnc(C(F)(F)F)c4)ccc3C)cc(N3CCOCC3)n2)ccn1 [Example 15],≤ 100 nM,–
CC(=O)Nc1cc(-c2cc(-c3cc(NC(=O)c4ccnc(C(C)(C)C#N)c4)ccc3C)ccn2)ccn1 [Example 19],≤ 100 nM,–
Cc1ccc(NC(=O)c2ccnc(C(C)(C)F)c2)cc1-c1ccnc(-c2ccnc(NC(=O)C3CC3)c2)n1 [Example 186],–,≤ 100 nM
Cc1ccc(NC(=O)c2ccnc(C3(C#N)CC3)c2)cc1-c1nccc(-c2ccnc(NC(=O)C3CC3)c2)n1 [Example 187],–,≤ 100 nM
Cc1ccc(NC(=O)c2ccnc(C(F)F)c2)cc1-c1ccnc(-c2ccnc(NC(=O)C3CC3)c2)n1 [Example 189],100 to 500 nM,–
Cc1ncc(NC(=O)c2ccnc(C(C)(C)C#N)c2)cc1-c1ccnc(-c2ccnc(NC(=O)C3CC3)c2)n1 [Example 193],≤ 100 nM,–
Cc1ccc(NC(=O)c2ccnc(C(C)(C)C#N)c2)cc1-c1cccc(-c2cc(NC(=O)C3(C)CC3)ncn2)c1 [Example 197],100 to 500 nM,–
Cc1cc(-c2cc(NC(=O)C3CC3)ncn2)cc(-c2cc(NC(=O)c3ccnc(C(C)(C)C#N)c3)ccc2C)c1 [Example 212],–,≤ 100 nM
CNC(=O)c1cc(-c2cc(-c3cc(NC(=O)c4ccnc(C(C)(C)F)c4)ccc3C)ccn2)ccn1 [Example 214],100 to 500 nM,≤ 100 nM
Cc1ncc(NC(=O)c2ccnc(C(C)(C)C#N)c2)cc1-c1cccc(-c2ccnc(NC(=O)C3CC3)c2)c1 [Example 222],≤ 100 nM,≤ 100 nM
Cc1ccc(NC(=O)c2ccnc(C(C)(C)C#N)c2)cc1-c1cccc(-c2ccnc(NC(=O)C3CC3)c2)c1 [Example 223],≤ 100 nM,–
Cc1ccc(NC(=O)c2ccnc(C(C)(C)C#N)c2)cc1-c1cncc(-c2cc(NC(=O)C3CC3)ncn2)c1 [Example 224],≤ 100 nM,≤ 100 nM
COC(=O)Nc1cc(-c2cccc(-c3cc(NC(=O)c4ccnc(C(C)(C)C#N)c4)cnc3C)c2)ncn1 [Example 225],≤ 100 nM,–
Cc1ccc(NC(=O)c2ccnc(C3CC3)c2)cc1-c1ccnc(-c2ccnc(NC(=O)C3CC3)c2)n1 [Example 229],–,≤ 100 nM
Cc1ccc(NC(=O)c2ccnc(C(C)(C)C#N)c2)cc1-c1cnnc(-c2ccnc(NC(=O)C3CC3)c2)c1 [Example 230],≤ 100 nM,–
CNC(=O)c1cc(-c2cncc(-c3cc(NC(=O)c4ccnc(C(C)(C)C#N)c4)ccc3C)c2)ncn1 [Example 235],100 to 500 nM,≤ 100 nM
Cc1ccc(NC(=O)c2ccnc(C(C)(C)C#N)c2)cc1-c1ccnc(-c2ccnc(NC(=O)C3(C#N)CC3)c2)n1 [Example 241],100 to 500 nM,–
Cc1ccc(NC(=O)c2ccnc(C(C)(C)C#N)c2)cc1-c1cc(-c2ccnc(NC(=O)C3CC3)c2)cnn1 [Example 245],≤ 100 nM,≤ 100 nM
Cc1ncc(NC(=O)c2ccnc(C(C)(C)F)c2)cc1-c1cccc(-c2cc(NC(=O)C3CC3)ncn2)c1 [Example 249],≤ 100 nM,≤ 100 nM
Cc1ncc(NC(=O)c2ccnc(C(C)(C)C#N)c2)cc1-c1ccnc(-c2ccnc(NC(=O)C3CC3)c2)c1 [Example 251],≤ 100 nM,–
Cc1ccc(NC(=O)c2ccnc(C(C)(C)C#N)c2)cc1-c1ccnc(-c2ccnc(NC(=O)C3CC3)c2)n1 [Example 257],≤ 100 nM,–
CNC(=O)c1cc(-c2cc(-c3cc(NC(=O)c4ccnc(C(C)(C)OC)c4)ccc3C)ccn2)ccn1 [Example 264],–,≤ 100 nM
CNC(=O)c1cc(-c2cc(-c3cc(NC(=O)c4ccnc(C5(C#N)CC5)c4)ccc3C)ccn2)ccn1 [Example 265],100 to 500 nM,–
COC(C)(C)c1cc(C(=O)Nc2cnc(C)c(-c3cccc(-c4cc(NC(=O)C5CC5)ncn4)c3)c2)ccn1 [Example 274],≤ 100 nM,≤ 100 nM
Cc1ncc(NC(=O)c2cnn(C(C)(C)C)c2)cc1-c1cccc(-c2cc(NC(=O)C3CC3)ncn2)c1 [Example 279],≤ 100 nM,–
